Like-named read-outs stand apart in the source and are kept apart here.
Tests used:
[1] = biological target: CYP enzyme subtype 3A4T (Homo sapiens, UniProt P08684); assay: Inhibition assay on hepatic CYP450 enzyme; format: in vitro ADME; conditions: CYP 3A4T; read-out: Half inhibitory concentration (IC50)
[2] = in vivo
[3] = test system: S. aureus strain Newman; assay: IC50 determination of inhibition of staphyloxanthin synthesis; format: cell-based; conditions: Staphylococcus aureus
Procedure: (§1) Selection of compound concentrations: based on the preliminary screening results, the ability of each compound to inhibit staphyloxanthin synthesis was determined. […] According to the assay results, 10 different concentration gradients were designed for each compound, such that the ability to inhibit staphyloxanthin synthesis comprised substantially from 0% to 100%.
(§2) Culture of the strains: single colonies of strain Newman and crtN mutant strain were picked from TSA plates, added into test tubes containing 4 mL of sterile TSB medium, and cultured at 37° C. and 250 rpm for 12 h for later use.
(§3) The relative level of staphyloxanthin synthesis at each concentration of the compound of the invention=A450 (sample)/A450 (negative control)*100%. With the molar concentration of the compound as the abscissa and the relative level of staphyloxanthin synthesis as the ordinate, a curve fitting of inhibitor concentration-inhibition rate (log(inhibitor) vs response) was performed in Graphpad prism 5.0 software, and the IC50 of the compound for inhibiting staphyloxanthin synthesis was calculated by software based on the fitting results.
S. aureus was selected for IC50 determination with respect to activity of inhibiting staphyloxanthin synthesis. […]

[4] = biological target: CYP enzyme subtype 2C8 (Homo sapiens, UniProt P10632); assay: Inhibition assay on hepatic CYP450 enzyme
Sequence of CYP enzyme subtype 2C8 (P10632 whole entry): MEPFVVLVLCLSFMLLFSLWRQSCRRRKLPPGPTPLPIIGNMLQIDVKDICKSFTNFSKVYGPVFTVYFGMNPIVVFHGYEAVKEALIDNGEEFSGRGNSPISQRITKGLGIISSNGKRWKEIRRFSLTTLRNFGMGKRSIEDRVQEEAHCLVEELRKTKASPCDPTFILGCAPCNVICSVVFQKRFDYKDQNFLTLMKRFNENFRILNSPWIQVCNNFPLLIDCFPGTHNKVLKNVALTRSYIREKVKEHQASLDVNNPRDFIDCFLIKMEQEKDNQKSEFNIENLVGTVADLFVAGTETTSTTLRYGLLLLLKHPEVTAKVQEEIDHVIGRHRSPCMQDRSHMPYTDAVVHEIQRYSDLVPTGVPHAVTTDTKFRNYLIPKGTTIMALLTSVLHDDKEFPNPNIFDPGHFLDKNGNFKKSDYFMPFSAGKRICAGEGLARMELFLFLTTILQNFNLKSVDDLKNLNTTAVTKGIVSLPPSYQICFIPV

[5] = test system: wild-type S. aureus Newman strain; assay: Verification assay using CrtN as a target (HPLC of carotenoid extract); format: cell-based, Staphylococcus aureus; conditions: 100 μM added to wild-type strain Newman, 440 nm
[6] = biological target: CYP enzyme subtype 1A2 (Homo sapiens, UniProt P05177); assay: Inhibition assay on hepatic CYP450 enzyme; format: in vitro ADME; conditions: CYP 1A2; read-out: Half inhibitory concentration (IC50)
Sequence of CYP enzyme subtype 1A2 (P05177 whole entry): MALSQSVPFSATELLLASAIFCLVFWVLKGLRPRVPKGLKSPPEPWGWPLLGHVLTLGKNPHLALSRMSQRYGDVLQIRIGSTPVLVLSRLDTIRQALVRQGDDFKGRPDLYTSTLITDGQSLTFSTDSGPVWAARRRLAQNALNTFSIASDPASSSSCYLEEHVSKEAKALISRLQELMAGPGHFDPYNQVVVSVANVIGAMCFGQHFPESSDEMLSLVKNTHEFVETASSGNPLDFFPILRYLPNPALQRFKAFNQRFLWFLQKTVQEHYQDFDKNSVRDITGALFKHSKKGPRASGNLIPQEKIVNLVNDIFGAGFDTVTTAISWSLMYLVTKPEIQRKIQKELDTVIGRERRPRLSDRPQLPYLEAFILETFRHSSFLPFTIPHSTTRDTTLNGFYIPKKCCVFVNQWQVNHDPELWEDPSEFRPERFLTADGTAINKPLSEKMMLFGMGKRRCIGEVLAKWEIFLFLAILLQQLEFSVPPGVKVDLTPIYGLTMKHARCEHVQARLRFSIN

[7] = biological target: CYP enzyme subtype 2D6 (Homo sapiens, UniProt P10635); assay: Inhibition assay on hepatic CYP450 enzyme; format: in vitro ADME; conditions: CYP 2D6; read-out: Half inhibitory concentration (IC50)
Sequence of CYP enzyme subtype 2D6 (P10635 whole entry): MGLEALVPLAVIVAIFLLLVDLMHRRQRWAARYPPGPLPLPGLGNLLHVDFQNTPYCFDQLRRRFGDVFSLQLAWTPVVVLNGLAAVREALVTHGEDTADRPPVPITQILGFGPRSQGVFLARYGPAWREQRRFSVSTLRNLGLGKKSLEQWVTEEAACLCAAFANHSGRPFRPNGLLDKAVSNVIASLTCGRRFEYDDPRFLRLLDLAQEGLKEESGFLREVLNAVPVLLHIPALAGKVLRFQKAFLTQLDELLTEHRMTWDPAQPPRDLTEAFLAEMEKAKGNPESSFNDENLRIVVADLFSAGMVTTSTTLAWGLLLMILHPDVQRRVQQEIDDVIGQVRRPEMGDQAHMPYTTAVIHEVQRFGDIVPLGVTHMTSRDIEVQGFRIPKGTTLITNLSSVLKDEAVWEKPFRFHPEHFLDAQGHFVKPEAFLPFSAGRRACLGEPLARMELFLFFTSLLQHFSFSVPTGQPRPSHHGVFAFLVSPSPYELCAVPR

[8] = test system: S. aureus; assay: Hydrogen peroxide killing assay; format: cell-based, Staphylococcus aureus; conditions: four strains, 1.5% hydrogen peroxide, 1 h
Source text: (§4) Compound IA-25 was used as a representative compound. The main object of the invention was to impair the ability of bacteria to resist immunological killing in vivo by inhibiting staphyloxanthins synthesis.
The calculated survival rate of bacteria after hydrogen peroxide killing=(count of bacteria grown in sample after hydrogen peroxide killing×dilution factor)/(count of bacteria grown in control group×dilution factor)×100%.

[9] = rat, in vivo, 1000 mg/kg
Source text: Thirty rats weighing 180-220 g, half male and half female, were picked out and randomly divided into three groups.

[10] = test system: Staphylococcus aureus subsp. aureus str. strain Newman; assay: Preliminary screening assay of inhibition of staphyloxanthin synthesis; format: cell-based
Procedure: Strains used for assay: freshly activated wild-type Staphylococcus aureus subsp. aureus str. strain Newman and its homologous mutant strain having crtN insertion (without staphyloxanthin synthesis).
Medium for assay: Tryptone Soy broth (TSB), a product from Oxid Corporation, the United Kingdom, which was formulated with distilled water, sterilized at 121° C. for 15 min for later use.
Method of Preliminary Screening Assay:
(1) Preparation of compound: the compound of the invention was dissolved in dimethyl sulfoxide (DMSO) to prepare a stock solution having a concentration of 10 mM; 400 μL of DMSO was added to 100 μL of the stock solution to get a dilution with a concentration of 2 mM; 250 μL (2 mM) of the dilution was taken after mixing, and an equal amount of DMSO was added thereto for 2-fold dilution to get a solution with a concentration of […] for later use.
(2) Culture of the strain: single colonies of strain Newman were picked from TSA plates into a test tube containing 4 mL of sterile TSB medium, and cultured at 37° C. and 250 rpm for 12 h for later use.

[11] = test system: S. aureus; assay: Human whole blood killing assay; format: cell-based, Staphylococcus aureus; conditions: four strains, fresh human blood, 6 h
Source text: as §4
The calculated survival rate of bacteria after blood killing=(count of bacteria grown in sample after blood killing×dilution factor)/(count of bacteria grown in control group×dilution factor)×100%.

[12] = test system: NRS271 (SPA); assay: IC50 of inhibition of staphyloxanthin synthesis in MRSA strain; format: cell-based; conditions: Staphylococcus aureus, NRS271, read-out: Inhibitory activity on staphyloxanthin IC50
Procedure: as §1, §2, §3
(§5) Compound IA-25 was used as a representative compound. In addition to replacement of S aureus strain Newman with other MRSA strains as described in Table 3, the rest of the method is the same as in Examples 61-62.

[13] = test system: LRSA202 (CHN); assay: as above; format: cell-based; conditions: Staphylococcus aureus, read-out: Inhibitory activity on staphyloxanthin IC50
Procedure: as §1, §2, §3, §5

[14] = test system: NRS100 (USA); assay: as above; format: cell-based; conditions: Staphylococcus aureus, NRS100, read-out: Inhibitory activity on staphyloxanthin IC50
Procedure: as §1, §2, §3, §5

[15] = test system: HS663 (CHN); assay: as above; format: cell-based; conditions: Staphylococcus aureus, read-out: Inhibitory activity on staphyloxanthin IC50
Procedure: as §1, §2, §3, §5

[16] = test system: LRSA56 (CHN); assay: as above; format: cell-based; conditions: Staphylococcus aureus, read-out: Inhibitory activity on staphyloxanthin IC50
Procedure: as §1, §2, §3, §5

[17] = test system: LRSA205 (CHN); assay: as above; format: cell-based; conditions: Staphylococcus aureus, read-out: Inhibitory activity on staphyloxanthin IC50
Procedure: as §1, §2, §3, §5

[18] = test system: NF65Y (CHN); assay: as above; format: cell-based; conditions: Staphylococcus aureus, read-out: Inhibitory activity on staphyloxanthin IC50
Procedure: as §1, §2, §3, §5

[19] = test system: NRS108 (FRA); assay: as above; format: cell-based; conditions: Staphylococcus aureus, NRS108, read-out: Inhibitory activity on staphyloxanthin IC50
Procedure: as §1, §2, §3, §5

[20] = test system: XN108 (CHN); assay: as above; format: cell-based; conditions: Staphylococcus aureus, read-out: Inhibitory activity on staphyloxanthin IC50
Procedure: as §1, §2, §3, §5

[21] = test system: NRS70 (JPN); assay: as above; format: cell-based; conditions: Staphylococcus aureus, NRS70, read-out: Inhibitory activity on staphyloxanthin IC50
Procedure: as §1, §2, §3, §5

[22] = biological target: CYP enzyme subtype 3A4M (Homo sapiens, UniProt P08684); assay: Inhibition assay on hepatic CYP450 enzyme; format: in vitro ADME; conditions: CYP 3A4M; read-out: Half inhibitory concentration (IC50)
Sequence of CYP enzyme subtype 3A4M (P08684 whole entry): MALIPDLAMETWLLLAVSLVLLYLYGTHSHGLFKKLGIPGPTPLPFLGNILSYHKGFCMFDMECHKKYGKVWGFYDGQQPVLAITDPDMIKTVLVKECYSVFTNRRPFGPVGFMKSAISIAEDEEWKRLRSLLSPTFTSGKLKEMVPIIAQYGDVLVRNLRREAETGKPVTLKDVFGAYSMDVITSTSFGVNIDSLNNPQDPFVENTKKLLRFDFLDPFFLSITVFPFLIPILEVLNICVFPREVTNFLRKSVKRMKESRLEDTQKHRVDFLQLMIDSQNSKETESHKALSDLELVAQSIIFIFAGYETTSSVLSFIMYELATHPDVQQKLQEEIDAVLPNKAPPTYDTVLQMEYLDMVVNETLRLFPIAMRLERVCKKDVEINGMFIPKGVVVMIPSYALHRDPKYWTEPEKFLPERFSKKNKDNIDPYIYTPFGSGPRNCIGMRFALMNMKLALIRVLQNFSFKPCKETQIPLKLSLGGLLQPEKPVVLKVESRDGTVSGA

Sequence of CYP enzyme subtype 3A4T (P08684 whole entry): as above

SMILES: CN(C/C=C/c1ccc(-c2ccccc2)cc1)Cc1coc2ccccc12 [Compound IA-25, (E)-N-methyl-N-[(benzofuran-3-yl)methylene]-3-(4-phenylphenyl)-prop-2-en-1-amine]
- IC50 [1]: > 10 µM
- bioavailability [2]: 15 to 45%
- IC50 ([3]; Newman, Table 3, read-out: Inhibitory activity on staphyloxanthin IC50): 2 ± 0.1 nM
- IC50 ([3]; S. aureus strain Newman, Table 1, read-out: IC50, inhibitory activity on staphyloxanthin synthesis): 2 ± 0.1 nM
- IC50 [4]: > 10 µM
- HPLC absorption peaks of carotenoid extract [5]: absorption peaks at the original peak position disappeared again
- IC50 [6]: 5.69 µM
- IC50 [7]: 3.2 µM
- bacterial survival rate after hydrogen peroxide killing [8]: less than 5%
- abnormality in the dissected organs [9]: there was not any abnormality in the dissected organs
- death or poor behavior events [9]: did not result in any death or poor behavior events in the rats
- colors in final photograph of inhibition of staphyloxanthin synthesis ([10]; 50, 10, 5, 2.5, 1.25, 0.625, 0.3125 and 0 μM from left to right): white to yellow from left to right gradually
- concentration at which staphyloxanthin synthesis is significantly inhibited ([10]; strain Newman, 24 h culture, lowest concentration tested): ≤ 0.3125 µM
- bacterial survival rate after human blood killing [11]: less than 3%
- IC50 [12]: 0.4 ± 0.01 nM
- IC50 [13]: 1.6 ± 0.2 nM
- IC50 [14]: 1.2 ± 0.1 nM
- IC50 [15]: 0.02 ± 0.01 nM
- IC50 [16]: 1.8 ± 0.1 nM
- IC50 [17]: 10.5 ± 0.4 nM
- IC50 [18]: 1 ± 0.02 nM
- IC50 [19]: 5.6 ± 0.02 nM
- IC50 [20]: 0.2 ± 0.04 nM
- IC50 [21]: 1.7 ± 0.01 nM
- IC50 [22]: > 10 µM
